Where two headings read alike, the source gives them in different places.

Data set [1] can be described thus: Drug substance description (solubility, hygroscopicity). Type of data set: physicochemical. From the text:
Bepotastine besilate is a white to off-white, odorless, crystalline powder. The bepotastine drug substance physiological mode of action is inhibition of histamine H1 receptors to relieve typical symptoms associated with allergic rhinitis. […] Fluticasone propionate is a white to off-white, crystalline synthetic trifluorinated corticosteroid used to treat inflammatory symptoms related to asthma and allergic rhinitis.

Data set [2] in a line: Chemical stability studies at 25° C. and 40° C. in amber glass bottles. Type of data set: physicochemical. The procedure: Chemical stability studies were performed to determine if the formulation would likely achieve a commercially practical shelf-life. Studies were performed at 25° C. and 40° C. in moisture impermeable amber glass bottles.
The conditions of data set [3]: cited from earlier work.
Another data set has as its system microorganisms. As to the kind of experiment: USP 51 Preservative Efficacy Test (overall outcome). Format: cell-based. To be noted: BAK at a concentration of 0.200 mg/mL. The source says:
The term “preservative efficacy” or “preservative effectiveness” or “antimicrobial efficacy”, as used herein, means that the composition satisfies USP standards as defined in protocol <51> p. 1681, United States Pharmacopeia, 1995: Antimicrobial effectiveness testing; The United States Pharmacopeia, 32nd rev ed., and the National Formulary, 27th ed. Rockville, Md.: USPC; 2009. For example, the preservative is effective in the product examined if (a) the concentrations of viable bacteria are reduced to not more than 0.1% of the initial concentrations by the fourteenth day; (b) the concentrations of viable yeasts and molds remain at or below the initial concentrations during the first 14 days; and (c) the concentration of each test microorganism remains at or below these designated levels during the remainder of the 28-day test period. Similar criteria are defined for BP standards (Efficacy of Antimicrobial Preservation, Appendix XVI C, 1995), and PhEur standards (Efficacy of Antimicrobial Preservation, Chapter VIII. 14, 1992).
The compositions provided herein may include an effective amount of an antimicrobial preservative. Preservatives can be used to inhibit microbial growth (e.g., bacterial or yeast) in the compositions. An “effective amount” of a preservative is that amount necessary to prevent the growth of microorganisms in the composition. […]

For `O=C(O)CCCN1CCC(O[C@@H](c2ccc(Cl)cc2)c2ccccn2)CC1.O=S(=O)(O)c1ccccc1` [Bepotastine besilate, (+)-(S)-4-[4-[(4-chlorophenyl)(2-pyridyl)methoxy]piperidino]butyric acid], in data set [1] (drug substance powder), the hygroscopicity entry is on record as “non-hygroscopic”. Also, the “dissolution in the nasal spray formulation vehicle” value in data set [1] (nasal spray formulation vehicle) was “dissolves readily”.

For the compound `O=C(O)CCCN1CCC(O[C@@H](c2ccc(Cl)cc2)c2ccccn2)CC1` [Bepotastine, (+)-(S)-4-[4-[(4-chlorophenyl)(2-pyridyl)methoxy]piperidino]butyric acid], the “impurities found during stability evaluation” value in data set [2] is given as “only impurity found was the ethyl ester precursor of bepotastine”.

For the compound `CCC(=O)O[C@]1(C(=O)SCF)[C@H](C)C[C@H]2[C@@H]3C[C@H](F)C4=CC(=O)C=C[C@]4(C)[C@@]3(F)[C@@H](O)C[C@@]21C` [fluticasone propionate, Fluticasone propionate], the solubility in water result in data set [3] is “practically insoluble”; in data set [3] (listed as fluticasone), “insoluble”.

Consider benzalkonium chloride [BAK], for which the effectiveness as preservative result with microorganisms is “effective preservative”.

(Values after patent US10736841B2, “Bepotastine compositions” (BAUSCH & LOMB INCORPORATED, priority 2011, dated 2020).)
